From patent publication US20230099293A1, “OGA INHIBITOR COMPOUNDS” (priority 2019, published 2023)

Assays:
[1] = biological target: T1, recombinant human Meningioma Expressed Antigen 5 (MGEA5), also referred to as O-GlcNAcase (OGA) (Homo sapiens, UniProt O60502); test: OGA biochemical assay (inhibition of FM-GlcNAc hydrolysis, fluorescence); details: for Enzymatic hOGA; pIC50: Table 5; for Emax: read-out: Enzymatic Emax (%); for IC50: Enzymatic hOGA
T1 construct: Full length OGA enzyme was purchased at OriGene (cat #TP322411); purchased OriGene TP322411
T1 sequence (O60502 1-916): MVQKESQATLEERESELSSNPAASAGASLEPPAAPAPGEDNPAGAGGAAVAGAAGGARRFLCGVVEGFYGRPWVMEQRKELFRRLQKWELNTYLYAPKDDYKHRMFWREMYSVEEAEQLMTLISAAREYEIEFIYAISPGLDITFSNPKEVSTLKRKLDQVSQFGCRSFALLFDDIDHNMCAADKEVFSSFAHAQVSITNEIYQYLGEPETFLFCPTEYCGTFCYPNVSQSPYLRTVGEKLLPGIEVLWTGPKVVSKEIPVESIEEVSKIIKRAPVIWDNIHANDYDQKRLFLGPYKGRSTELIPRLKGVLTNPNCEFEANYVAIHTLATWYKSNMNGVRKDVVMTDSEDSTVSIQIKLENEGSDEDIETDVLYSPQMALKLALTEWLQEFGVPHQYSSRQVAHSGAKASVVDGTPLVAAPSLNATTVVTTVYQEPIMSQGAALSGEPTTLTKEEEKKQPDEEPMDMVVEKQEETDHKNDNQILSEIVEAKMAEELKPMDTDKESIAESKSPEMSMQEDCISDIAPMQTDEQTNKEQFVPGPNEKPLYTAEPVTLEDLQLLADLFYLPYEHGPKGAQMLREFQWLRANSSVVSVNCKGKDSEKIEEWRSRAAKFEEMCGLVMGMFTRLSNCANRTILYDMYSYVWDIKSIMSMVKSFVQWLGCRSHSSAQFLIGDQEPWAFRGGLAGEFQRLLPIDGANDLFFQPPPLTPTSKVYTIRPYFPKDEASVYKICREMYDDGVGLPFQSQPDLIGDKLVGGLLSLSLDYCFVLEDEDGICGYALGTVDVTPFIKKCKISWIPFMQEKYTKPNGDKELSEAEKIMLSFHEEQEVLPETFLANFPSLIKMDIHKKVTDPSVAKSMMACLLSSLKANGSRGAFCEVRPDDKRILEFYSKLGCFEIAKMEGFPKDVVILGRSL
Description: The hydrolysis FM-GlcNAc (Marker Gene technologies, cat #M1485) results in the formation of β-D-N-glucosamineacetate and fluorescein. The fluorescence of the latter can be measured at excitation wavelength 485 nm and emission wavelength 538 nm. An increase in enzyme activity results in an increase in fluorescence signal. Full length OGA enzyme was purchased at OriGene (cat #TP322411). The enzyme was stored in 25 mM Tris.HCl, pH 7.3, 100 mM glycine, 10% glycerol at −20° C. […] The assay was performed in 200 mM Citrate/phosphate buffer supplemented with 0.005% Tween-20. 35.6 g Na2HIPO42H2O (Sigma, #C0759) were dissolved in 1 L water to obtain a 200 mM solution. […] The buffer to stop the reaction consists of a 500 mM Carbonate buffer, pH 11.0. […] OGA was used at a 2 nM concentration and FM-GlcNAc at a 100 uM final concentration. Dilutions were prepared in assay buffer.
Plates were pre-incubated for 60 min at room temperature and then 2 μl FM-GlcNAc substrate mix added. […] Plates were briefly centrifuged for 1 min at 1000 rpm and incubate at room temperature for 6 h. To stop the reaction 5 μl STOP buffer were added and plates centrifuge again 1 min at 1000 rpm. Fluorescence was quantified in the Thermo Scientific Fluoroskan Ascent or the PerkinElmer EnVision with excitation wavelength 485 nm and emission wavelength 538 nm.
For analysis a best-fit curve is fitted by a minimum sum of squares method. From this an IC50 value and Hill coefficient was obtained. High control (no inhibitor) and low control (saturating concentrations of standard inhibitor) were used to define the minimum and maximum values.

hOGA = biological target: T2, hOGA (Homo sapiens, UniProt O60502); test: OGA cellular assay (ICC detection of O-GlcNAcylated proteins in HEK293 cells inducible for P301L mutant human Tau); type: cell-based; parameters: Emax: dose or concentration left out as unconfirmed; details: for Emax: HEK293, read-out: Cellular Emax (%); for EC50: Cellular hOGA
T2 construct: endogenous in cells; host or cells: HEK293 cells inducible for P301L mutant human Tau (isoform 2N4R)
T2 sequence (O60502 1-916): T1 sequence (O60502 1-916)
Description: HEK293 cells inducible for P301L mutant human Tau (isoform 2N4R) were established at Janssen. Thiamet-G was used for both plate validation (high control) and as reference compound (reference EC50 assay validation). OGA inhibition is evaluated through the immunocytochemical (ICC) detection of O-GlcNAcylated proteins by the use of a monoclonal antibody (CTD110.6; Cell Signaling, #9875) detecting O-GlcNAcylated residues as previously described (Dorfmueller et al. 2010 Chemistry & biology, 17:1250). Inhibition of OGA will result in an increase of O-GlcNAcylated protein levels resulting in an increased signal in the experiment. Cell nuclei are stained with Hoechst to give a cell culture quality control and a rough estimate of immediate compounds toxicity, if any. ICC pictures are imaged with a Perkin Elmer Opera Phenix plate microscope and quantified with the provided software Perkin Elmer Harmony 4.1.
Cells were propagated in DMEM high Glucose (Sigma, #D5796) following standard procedures. 2 days before the cell assay cells are split, counted and seeded in Poly-D-Lysine (PDL) coated 96-wells (Greiner, #655946) plate at a cell density of 12,000 cells per cm^2 (4,000 cells per well) in 100 μl of Assay Medium (Low Glucose medium is used to reduce basal levels of GlcNAcylation) (Park et al. 2014 The Journal of biological chemistry 289:13519). At the day of compound test medium from assay plates was removed and replenished with 90 μl of fresh Assay Medium. 10 μl of compounds at a 10 fold final concentration were added to the wells. Plates were centrifuged shortly before incubation in the cell incubator for 6 hours. DMSO concentration was set to 0.2%. Medium is discarded by applying vacuum. For staining of cells medium was removed and cells washed once with 100 μl D-PBS (Sigma, #D8537). From next step onwards unless other stated assay volume was always 50 μl and incubation was performed without agitation and at room temperature. Cells were fixed in 50 μl of a 4% paraformaldehyde (PFA, Alpha aesar, #043368) PBS solution for 15 minutes at room temperature. […] Before analysis samples were washed 2 times manually for 5 minutes in ICC base buffer.
Imaging is performed using Perkin Elmer Phenix Opera using a water 20× objective and recording 9 fields per well. Intensity readout at 488 nm is used as a measure of O-GlcNAcylation level of total proteins in wells. To assess potential toxicity of compounds nuclei were counted using the Hoechst staining. IC50-values are calculated using parametric non-linear regression model fitting. As a maximum inhibition Thiamet Gat a 200 uM concentration is present on each plate. In addition, a concentration response of Thiamet G is calculated on each plate.

[2] = full length OGA 2 nM, FM-GlcNAc 100 uM, 6 h at room temperature
[3] = Table 5, HEK293 P301L Tau cells, 6 hours incubation, O-GlcNAcylation readout
[4] = pIC50, Table 5, full length OGA 2 nM, FM-GlcNAc 100 uM, 6 h at room temperature
[5] = pEC50, Table 5, HEK293 P301L Tau cells, 6 hours incubation, O-GlcNAcylation readout

Structure (SMILES): Cc1cc(C(F)(F)F)cc(C)c1Nc1nccc2c1ncn2CCC(=O)N(C)C [Compound 70]
- Enzymatic hOGA; pIC50 [1, 2]: <5
- Emax [1]: 7%
- Emax (hOGA): 7%
- Cellular hOGA; pEC50 (hOGA; [3]): <6
- Cellular hOGA; pEC50 (hOGA; second table, averaged values over several runs, obtained after recalibration of the equipment): <6
- melting point: 194.9 °C

Structure (SMILES): Cc1cc(C(F)(F)F)nc(C)c1Nc1nccc2c1ncn2CC(=O)N(C)C [Compound 23]
- IC50 [1, 4]: 0.0457 µM
- Emax [1]: 99%
- EC50 (hOGA; [5]): 1.02 µM
- Emax (hOGA): 51%
- melting point: 233.3 °C

Structure (SMILES): Cc1cc(C(F)(F)F)cc(C)c1Nc1nccc2c1ncn2CC(=O)N(C)CC(F)(F)F [Compound 77]
- Enzymatic hOGA; pIC50 [1, 2]: 7.23
- Emax [1]: 103%
- Emax (hOGA): 67%
- Cellular hOGA; pEC50 (hOGA; [3]): 6.37
- melting point: 228.3 °C

Structure (SMILES): Cc1nn(-c2cccc(C#N)c2)c(C)c1Nc1nccc2c1ncn2CC(=O)N(C)C [Compound 33]
- IC50 [1, 4]: 0.0204 µM
- Emax [1]: 97%
- EC50 (hOGA; [5]): 0.479 µM
- Emax (hOGA): 63%
- melting point: 239.9 °C

Structure (SMILES): Cc1cc(C(F)(F)F)cc(Cl)c1Nc1nccc2c1ncn2CC(=O)N(C)C [Compound 15]
- IC50 [1, 4]: 0.0141 µM
- Emax [1]: 98%
- EC50 (hOGA; [5]): 0.204 µM
- Emax (hOGA): 64%
- melting point: 214.14 °C

Structure (SMILES): [2H]C([2H])([2H])N(C(=O)Cn1cnc2c(Nc3c(C)cc(C(F)(F)F)cc3C)nccc21)C([2H])([2H])[2H] [Compound 53]
- IC50 [1, 4]: 0.00724 µM
- Emax [1]: 103%
- EC50 (hOGA; [5]): 0.135 µM
- Emax (hOGA): 87%
- melting point: 208.2 °C

Structure (SMILES): Cc1ccc(C(F)(F)F)c(C)c1Nc1nccc2c1ncn2CC(=O)N(C)C [Compound 18]
- IC50 [1, 4]: 0.0162 µM
- Emax [1]: 99%
- EC50 (hOGA; [5]): 0.631 µM
- Emax (hOGA): 56%
- melting point: 250 °C

Structure (SMILES): Cc1cc(C(F)(F)F)cc(Cl)c1Nc1nccc2c1ncn2CC(C)(F)F [Compound 2]
- IC50 [1, 4]: 0.00603 µM
- Emax [1]: 99%
- EC50 (hOGA; [5]): 0.0955 µM
- Emax (hOGA): 87%

Structure (SMILES): CN(C)C(=O)Cn1cnc2c(Nc3c(Cl)cc(C(F)(F)F)cc3Cl)nccc21 [Compound 17]
- IC50 [1, 4]: 0.0162 µM
- Emax [1]: 99%
- EC50 (hOGA; [5]): 0.316 µM
- Emax (hOGA): 77%
- melting point: 238.4 °C

Structure (SMILES): Cc1cc(OC(F)(F)F)cc(C)c1Nc1nccc2c1ncn2CC(=O)N(C)C [Compound 9]
- IC50 [1, 4]: 0.00676 µM
- Emax [1]: 99%
- EC50 (hOGA; [5]): 0.0589 µM
- Emax (hOGA): 82%
- melting point: 186.5 °C

Structure (SMILES): Cc1cc(C(F)(F)F)cc(C)c1Nc1nccc2c1ncn2-c1ncn(C)c1C [Compound 83]
- IC50 ([1]; pIC50, second table, averaged values over several runs, obtained after recalibration of the equipment): 1.17 µM
- EC50 (hOGA; pEC50, second table, averaged values over several runs, obtained after recalibration of the equipment): > 1 µM

Structure (SMILES): Cc1ccnc(C(C)C)c1Nc1nccc2c1ncn2CC(C)(F)F [Compound 1, 1-(2,2-Difluoropropyl)-N-(2-isopropyl-4-methylpyridin-3-yl)-1H-imidazo[4,5-c]pyridin-4-amine]
- IC50 [1, 4]: 0.00513 µM
- Emax [1]: 101%
- EC50 (hOGA; [5]): 0.0457 µM
- Emax (hOGA): 81%

Structure (SMILES): Cc1cc(C(F)(F)F)cc(F)c1Nc1nccc2c1ncn2CC(=O)N(C)CC(F)(F)F
- melting point: 238.3 °C

Structure (SMILES): CCCCn1ncc2c(Nc3c(C)cncc3C)nccc21 [Compound 68]
- IC50 [1, 4]: 7.59 µM
- Emax [1]: 61%

Structure (SMILES): [2H]C([2H])([2H])N(C)C(=O)Cn1cnc2c(Nc3c(C)cc(C(F)(F)F)cc3C)nccc21
- melting point: 212.2 °C

Structure (SMILES): Cc1cc(C(F)(F)F)cc(F)c1Nc1nccc2c1ncn2CC(=O)N(C)C1CC1
- melting point: 219.8 °C

Structure (SMILES): Cc1cc(C(F)(F)F)nc(C)c1Nc1nccc2c1ncn2CC(=O)N1CCC1 [Compound 51]
- IC50 [1, 4]: 1.48 µM
- Emax [1]: 82%
- EC50 (hOGA; [5]): > 1 µM
- Emax (hOGA): 15%

Structure (SMILES): CCCCn1ncc2c(Nc3c(Cl)cncc3Cl)nccc21 [Compound 67]
- IC50 [1, 4]: 0.513 µM
- Emax [1]: 94%
- EC50 (hOGA; [5]): > 1 µM
- Emax (hOGA): 6%

Structure (SMILES): CCCCn1cnc2c(Nc3c(Cl)cncc3Cl)nccc21 [Compound 58]
- IC50 [1, 4]: 0.525 µM
- Emax [1]: 95%

Structure (SMILES): Cc1cc(F)cc(F)c1Nc1nccc2c1ncn2CC(=O)N(C)C [Compound 26]
- IC50 [1, 4]: 0.191 µM
- Emax [1]: 98%
- EC50 (hOGA; [5]): > 1 µM
- Emax (hOGA): 8%
